Test results: patent US5869527A, “6-(N-carboxymethylamino)caproate, salts thereof and methods of use therefor” (Alteon Inc., priority 1996, dated 1999)

Columns and labels:
[1] = tested on: advanced glycosylation endproducts; settings: U.S. Pat. No. 4,758,583; cited from earlier work
[2] = tested on: Hb-AGE; settings: diabetic patients treated for 28 days; WO 93/13421; cited from earlier work
[3] = biological target: monoclonal antibody 4G9; assay: Competition ELISA, inhibition of mAb 4G9 binding; design: species or system mouse
Experimental: (§1) The ability of monoclonal antibodies, mAb 4G9, mAb BH4 and mAb 2G6, raised against KLH non-enzymatically glycated by prolonged incubation with glucose (KLH-AGE), to recognize the disodium 6-(N-carboxymethylamino)caproate was determined.
(§2) Direct ELISA and competition ELISA. For direct ELISA, 6- (N-carboxymethylamino)caproate was coated on microtiter plates, the unbound sites were blocked by incubation with Assay Buffer (25 mM borate, pH 8.0, 150 mM NaCl, 0.01% EDTA and 1% BSA). The plate was washed six times and increasing concentrations of mAb in Assay Buffer were added. […] The unbound antibodies were removed by extensive washing and the bound antibodies were detected by addition of p-nitrophenylphosphate in recording the optical density at 410 nm.
(§3) The competition ELISA was performed by pre-coating microtiter plates with disodium 6-(N-carboxymethylamino)caproate and blocking with Assay Buffer. […] The unbound materials were removed by extensive washing and the bound mAb was detected with alkaline phosphatase labeled anti-mouse antibodies similar to direct ELISA. […]
(§4) Competitive ELISA: Plates coated with BSA-AGE at 10 μg/ml. […] In the case of isothiocyanate the plates are soaked for 15 minutes with varying concentrations of isothiocyanate and the level of binding then measured.

[4] = biological target: monoclonal antibody 2G6; assay: Competition ELISA, inhibition of mAb 2G6 binding; design: species or system mouse
Experimental: as §1, §2, §3, §4

[5] = biological target: monoclonal antibody BH4; assay: Competition ELISA, inhibition of mAb BH4 binding; design: species or system mouse
Experimental: as §1, §2, §3, §4

[6] = tested on: antibodies to advanced glycosylation endproducts; assay: Recognition of compounds by monoclonal antibodies to advanced glycosylation endproducts (direct/competition ELISA); type: binding; settings: qualitative
Experimental: as §1
Direct ELISA and competition ELISA. For direct ELISA, 6- (N-carboxymethylamino)caproate was coated on microtiter plates, the unbound sites were blocked by incubation with Assay Buffer (25 mM borate, pH 8.0, 150 mM NaCl, 0.01% EDTA and 1% BSA). The plate was washed six times and increasing concentrations of mAb in Assay Buffer were added. After this incubation, the plate was again washed and incubated with alkaline-phosphatase labeled goat anti-mouse antibodies (Cappel, Durham, N.C.) diluted 1:1000 in Assay Buffer. The unbound antibodies were removed by extensive washing and the bound antibodies were detected by addition of p-nitrophenylphosphate in recording the optical density at 410 nm.
as §3

[7] = Competitive ELISA, plates coated with BSA-AGE at 10 μg/ml

SMILES | inhibition of formation of advanced glycosylation endproducts [1] | levels of Hb-AGE at the end of the treatment period [2] | Concentration of Antigen for 50% Inhibition of mAb 4G9 [3, 7] [pmol/well] | recognition by monoclonal antibody 4G9 ([3]; qualitative, ELISA) | Concentration of Antigen for 50% Inhibition of mAb 2G6 [4, 7] [pmol/well] | recognition by monoclonal antibody 2G6 ([4]; qualitative, ELISA) | Concentration of Antigen for 50% Inhibition of mAb BH4 [5, 7] [pmol/well] | recognition by monoclonal antibody BH4 ([5]; qualitative, ELISA) | recognition by antibodies which recognize advanced glycosylation endproducts [6]
N=C(N)NN [aminoguanidine] | identified as an inhibitor | significantly decreased levels of Hb-AGE |  |  |  |  |  |  | 
O=C(O)CCCCCNCC(=O)O [ALT-927, disodium 6-(N-carboxymethylamino)caproate] |  |  | 11 | displayed recognition | 21 | displayed recognition | 5.7 | displayed recognition | have been shown to recognize
